This assay deals with T1, Histone-lysine N-methyltransferase SETD7 (Homo sapiens, UniProt Q8WTS6).
T1 sequence (Q8WTS6 whole entry): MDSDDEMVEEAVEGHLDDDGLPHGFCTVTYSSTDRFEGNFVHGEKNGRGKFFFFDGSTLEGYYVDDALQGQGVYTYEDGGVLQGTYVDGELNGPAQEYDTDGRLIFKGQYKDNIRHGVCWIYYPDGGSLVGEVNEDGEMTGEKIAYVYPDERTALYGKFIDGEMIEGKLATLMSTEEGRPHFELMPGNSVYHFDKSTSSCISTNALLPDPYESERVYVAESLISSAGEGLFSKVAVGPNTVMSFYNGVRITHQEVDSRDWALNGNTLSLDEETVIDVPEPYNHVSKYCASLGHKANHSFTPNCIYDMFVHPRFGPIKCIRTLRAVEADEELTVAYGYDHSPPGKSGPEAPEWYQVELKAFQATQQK
Description: Inhibition of recombinant SET7/9 (unknown origin) using biotinylated histone H3-derived peptide/SAM as substrate after 60 mins by AlphaLISA assay. For orientation: Alpha assays give light when donor and acceptor beads are brought close together.
Take `CN1CCC(=C2c3ccccc3Sc3ccccc32)CC1` [PIMETHIXENE]: the IC50 (usually the concentration at which inhibition is half-maximal) was 4.3 µM.

As for `CN1CCN(C2c3ccccc3Sc3ccccc32)CC1`, the 50% inhibitory concentration (IC50) was above 100 µM.

Take `CN1CCC(OC2c3ccccc3Oc3ccccc32)CC1`: the IC50 is above 100 µM.

Take `CN1CCC(OC2c3ccccc3Sc3ccccc32)CC1`: the half-inhibitory concentration (IC50) is above 100 µM.

Turning to `CN1CCN(C2c3ccccc3Oc3ccccc32)CC1`, the concentration for half-maximal inhibition (IC50) is above 100 µM.

Regarding `CN1CCN(C2c3ccccc3C=Cc3ccccc32)CC1`, the IC50 is above 100 µM.

With `CN1CCC(=C2c3ccccc3C=Cc3ccccc32)CC1` [CYPROHEPTADINE], the IC50 amounted to 3.4 µM.

For `CN1CCC(OC2c3ccccc3C=Cc3ccccc32)CC1`, the concentration for half-maximal inhibition (IC50) was above 100 µM.

For the origin of these results see ChEMBL document CHEMBL3826955, “Steric structure-activity relationship of cyproheptadine derivatives as inhibitors of histone methyltransferase Set7/9” (Bioorg Med Chem, 2016).
